Test results taken from patent US6153419A, “Method for quantitative determination of 1,5-anhydroglucitol” (Kyowa Hakko Kogyo Co., Ltd., priority 1996, dated 2000).
Read-outs that look alike come from different tables or passages of the source.

Tests used:
Type in all cases: biochemical
[1] = tested on: trehalase derived from Nocardia sp. NK-2067; assay: Effect of metal chelating agents, enzyme inhibitors and metal ions on the novel trehalase
Method: The effect of various metal chelating agents, enzyme inhibitors and metal ions on the enzyme was investigated at a concentration of 1 mM.
(§1) To 1 ml of the substrate solution is added 0.02 ml of an enzyme solution, and reaction is carried out at 37° C. for 30 minutes. The reaction is stopped by heating at 100° C. for 3 minutes. To the reaction mixture is added 1 ml of the color-producing reagent, and reaction is carried out at 37° C. for 20 minutes, followed by measurement of the absorbance at 500 nm. A control solution is prepared by using water instead of the enzyme solution in the above procedure.

[2] = tested on: trehalase derived from Rhodococcus globerulus ATCC 14898; assay: Test Example 1: specificity of inhibition by 1,5-anhydroglucitol; conditions: for Inhibition (%): test sugar 1 mM, 100 mM phosphate buffer pH 7.0, 10 mg/ml trehalose, 10 minutes
Method: (§2) A reaction mixture was prepared by adding 10 mU/ml trehalase prepared in Reference Example 3, 0.81 mg/ml 4-aminoantipyrine, 1 mg/ml EMSE, 30 U/ml glucose oxidase, 10 U/ml peroxidase, and 1 mM test sugar shown in Table 4 to 100 mM phosphate buffer (pH 7.0). After addition of 10 mg/ml trehalose to the reaction mixture and stirring, the change in absorbance at 550 nm was measured with a spectrophotometer.

[3] = tested on: trehalase derived from Nocardia sp. NK-2067; assay: Substrate specificity of the novel trehalase (activity on various substrates); conditions: for Relative activity (%): substrate 1.75 mM, 100 mM phosphate buffer pH 5.5, activity on trehalose defined as 100
Method: The activity of the enzyme on various substrates was measured at a substrate concentration of 1.75 mM in 100 mM phosphate buffer (pH 5.5). The results are shown in Table 1 as relative activities, the activity on trehalose being defined as 100.
The enzyme activity is measured in the following manner.
(§3) Trehalose is dissolved in 100 mM phosphate buffer (pH 5.5) to give a concentration of 12.5 mM.
(§4) Glucose oxidase (Toyobo Co., Ltd., Grade II), peroxidase (Toyobo Co., Ltd., Grade III), 4-aminoantipyrine and phenol are dissolved in water to give final concentrations of 0.04 mg/ml, 0.04 mg/ml, 1.2 mM and 21 mM, respectively.
as §1
(§5) The trehalase activity is expressed by unit, one unit being defined as that amount of the enzyme which will hydrolyze 1 μmol of trehalose at 37° C. in one minute. The activity per milliliter of enzyme solution (U/ml) can be calculated from the net difference in absorbance (enzyme solution-control solution) according to the following equation. [formula]

[4] = tested on: trehalase derived from Nocardia sp. NK-2067; assay: Inhibition specificity of the novel trehalase to various sugars, trehalose as substrate; conditions: sugar at 1.75 mM
Method: The enzyme was also examined for inhibition specificity to various sugars at 1.75 mM using trehalose as a substrate.
as §3, §4, §1, §5

[5] = tested on: trehalose phosphorylase derived from Catellatospora ferruginea FERM BP-4329; assay: Example 1: inhibition of the decomposition activity of trehalose phosphorylase; conditions: pH 7.0, FIG. 5
Method: A reaction mixture was prepared by adding 10 mU/ml trehalose phosphorylase derived from Catellatospora ferruginea prepared in Reference Example 1, 2.5 U/ml […] (Beckman Instruments, Inc.), 5 U/ml glucose-6-phosphate dehydrogenase (Sigma Chemical Co.), 10 mM NADP, and a sample containing 1,5-anhydroglucitol at a varied concentration to 100 mM phosphate buffer (pH 7.0). After addition of 10 mg/ml trehalose to the reaction mixture and stirring, the increase in absorbance at 340 nm was measured with a spectrophotometer.

[6] = tested on: trehalase derived from Rhodococcus globerulus ATCC 14898; assay: Example 4: inhibition of trehalase, calibration curve; conditions: pH 7.0, FIG. 8
Method: as §2, with “2,” for “3,”, “a sample containing 1,5-anhydroglucitol at a varied concentration” for “1 mM test sugar shown in Table 4”, “increase” for “change”
The same procedure as in Example 3 was repeated, except that trehalase derived from Rhodococcus globerulus prepared in Reference Example 3 was used.

[7] = tested on: trehalose phosphorylase derived from Catellatospora ferruginea FERM BP-4329; assay: Example 2: inhibition of the synthesis activity of trehalose phosphorylase; conditions: imidazole buffer pH 7.0, FIG. 6
Method: A reaction mixture (3 ml) was prepared by adding 10 mU/ml trehalose phosphorylase prepared in Reference Example 1, 50 mM glucose, 2 ml of a kit for the determination of inorganic phosphorus (Kyowa Medex Co., Ltd.), and a sample containing 1,5-anhydroglucitol at a varied concentration to 50 mM imidazole buffer (pH 7.0). After addition of 50 mM β-glucose-1-phosphate to the reaction mixture and stirring, the increase in absorbance at 550 nm was measured with a spectrophotometer.

[8] = tested on: trehalase derived from Nocardia sp. NK-2067; assay: Example 6: inhibition of trehalase, calibration curve; conditions: pH 7.0, FIG. 9
Method: as §2, with “2,” for “3,”, “a sample containing 1,5-anhydroglucitol at a varied concentration” for “1 mM test sugar shown in Table 4”, “increase” for “change”
The same procedure as in Example 3 was repeated, except that trehalase derived from Nocardia sp. prepared in Example 5 was used.

[9] = tested on: trehalase derived from Streptomyces aureofaciens ATCC 10762; assay: Example 3: inhibition of trehalase, calibration curve; conditions: pH 7.0, FIG. 7
Method: as §2, with “2,” for “3,”, “a sample containing 1,5-anhydroglucitol at a varied concentration” for “1 mM test sugar shown in Table 4”, “increase” for “change”

[10] = molecular target: trehalase derived from Nocardia sp. NK-2067; assay: Substrate and inhibitor affinity by Lineweaver-Burk plot; conditions: pH 5.5, Lineweaver-Burk plot
Method: The Km value of the enzyme for trehalose at pH 5.5 as determined by Lineweaver-Burk plot [J. Am. Chem. Soc., 56, 658 (1934)] is 6.7 mM.

## O=S(=O)([O-])[O-].[Zn+2] [ZnSO4]
[1]; compound at 1 mM
  Inhibition (%): 53.4%

## c1cnc2c(c1)ccc1cccnc12 [1,10-Phenanthroline]
[1]; compound at 1 mM
  Inhibition (%): 88.5%
[1]; summary of Table 3
  Inhibition of the enzyme in words: inhibited

## N[C@H]1C(O)O[C@H](CO)[C@@H](O)[C@@H]1O (stereo partly drawn) [D-Glucosamine]
[2]
  Inhibition (%): 0%

## O=C(CO)[C@@H](O)[C@H](O)[C@H](O)CO [D-Fructose]
[2]
  Inhibition (%): 0%

## OC[C@H]1O[C@@](CO)(O[C@H]2O[C@H](CO)[C@@H](O)[C@H](O)[C@H]2O)[C@@H](O)[C@@H]1O [Sucrose]
[3]
  Relative activity (%): 0%
[2]
  Inhibition (%): 0%
[4]
  Inhibition (%): 0%

## OC[C@H]1OC(O)[C@H](O)[C@@H](O)[C@H]1O (stereo partly drawn) [D-Galactose]
[2]
  Inhibition (%): 0.2%

## O=C(O)c1cc[c]([Hg][OH])cc1 [p-Mercuribenzoic acid]
[1]; compound at 1 mM
  Inhibition (%): 94.7%
[1]; summary of Table 3
  Inhibition of the enzyme in words: inhibited

## [N-]=[N+]=[N-] [Sodium azide]
[1]; compound at 1 mM
  Inhibition (%): 22.8%

## C[C@H]1OC(O)[C@H](O)[C@@H](O)[C@H]1O (stereo partly drawn) [D-Fucose]
[2]
  Inhibition (%): 0%

## CCN(CC)C(=S)S [Diethyldithiocarbamic acid]
[1]; compound at 1 mM
  Inhibition (%): 51.0%

## OC[C@H]1OC[C@H](O)[C@@H](O)[C@@H]1O [1,5-Anhydroglucitol]
[5]
  Relationship between inhibition rate and concentration: good linear relationship
[6]
  Relationship between inhibition rate and concentration: good linear relationship
[7]
  Relationship between inhibition rate and concentration: good linear relationship
[8]
  Relationship between inhibition rate and concentration: good linear relationship
[2]; conclusion from Table 4
  Specificity of inhibition in words: inhibited specifically
[2]
  Inhibition (%): 45.0%
[9]
  Relationship between inhibition rate and concentration: good linear relationship
[4]
  Inhibition (%): 80.7%
[10]; read-out: Ki value of the enzyme
  Ki: 330 µM

## CCN1C(=O)C=CC1=O [N-Ethylmaleimide]
[1]; compound at 1 mM
  Inhibition (%): 21.9%

## O=C(O)CN(CCN(CC(=O)O)CC(=O)O)CC(=O)O [EDTA, ethylenediaminetetraacetic acid]
[1]
  Inhibition (%): 67.6%
  Inhibition of the enzyme in words: inhibited

## NO [Hydroxylamine]
[1]; compound at 1 mM
  Inhibition (%): 81.2%
[1]; summary of Table 3
  Inhibition of the enzyme in words: inhibited

## c1ccc(-c2ccccn2)nc1 [2,2'-Bipyridyl]
[1]; compound at 1 mM
  Inhibition (%): 60.0%
[1]; summary of Table 3
  Inhibition of the enzyme in words: inhibited

## OC[C@H]1O[C@H](O[C@H]2O[C@H](CO)[C@@H](O)[C@H](O)[C@H]2O)[C@H](O)[C@@H](O)[C@@H]1O [Trehalose]
[3]; conclusion from Table 1
  Substrate specificity in words: specifically acts on
[3]
  Relative activity (%): 100%
[10]; read-out: Km value of the enzyme
  Km: 6.7 mM

## N[C@H]1[C@@H](O[C@H]2O[C@H](CO)[C@@H](O)[C@H](O)[C@H]2O)O[C@H](CO)[C@@H](O)[C@@H]1O [Trehalosamine]
[3]
  Relative activity (%): 0.5%

## [Cl-].[Cl-].[Co+2] [CoCl2]
[1]; compound at 1 mM
  Inhibition (%): 20.4%

## [Ba+2].[Cl-].[Cl-] [BaCl2]
[1]; compound at 1 mM
  Inhibition (%): 40.7%

## NC(=O)CI [Iodoacetamide]
[1]; compound at 1 mM
  Inhibition (%): 83.6%
[1]; summary of Table 3
  Inhibition of the enzyme in words: inhibited

## OC[C@H]1OC(O)[C@@H](O)[C@@H](O)[C@@H]1O (stereo partly drawn) [D-Mannose]
[2]
  Inhibition (%): 0.5%

## OC[C@H]1O[C@H](O[C@H]2[C@H](O)[C@@H](O)[C@H](O)O[C@@H]2CO)[C@H](O)[C@@H](O)[C@@H]1O [Maltose]
[3]
  Relative activity (%): 0%
[2]
  Inhibition (%): 0%
[4]
  Inhibition (%): 0%

## OC1OC[C@@H](O)[C@H](O)[C@H]1O (stereo partly drawn) [D-Xylose]
[2]
  Inhibition (%): 0%

## OC[C@H]1O[C@@H](O[C@H]2[C@H](O)[C@@H](O)C(O)O[C@@H]2CO)[C@H](O)[C@@H](O)[C@H]1O (stereo partly drawn) [Lactose]
[3]
  Relative activity (%): 0%
[4]
  Inhibition (%): 0%

## OC[C@H]1O[C@H](O[C@H]2C(O)O[C@H](CO)[C@@H](O)[C@@H]2O)[C@H](O)[C@@H](O)[C@@H]1O (stereo partly drawn) [Kojibiose]
[3]
  Relative activity (%): 0%
[4]
  Inhibition (%): 0%

## CC(=O)N[C@H]1C(O)O[C@H](CO)[C@@H](O)[C@@H]1O (stereo partly drawn) [N-Acetyl-D-glucosamine]
[2]
  Inhibition (%): 0%

## O=C1CCC(=O)N1Br [N-Bromosuccinimide]
[1]; compound at 1 mM
  Inhibition (%): 23.4%

## O=S(=O)([O-])[O-].[Ni+2] [NiSO4, nickel sulfate]
[1]
  Inhibition (%): 62.1%
  Inhibition of the enzyme in words: inhibited

## C[C@@H]1OC(O)[C@@H](O)[C@H](O)[C@@H]1O (stereo partly drawn) [L-Fucose]
[2]
  Inhibition (%): 0%

## OC[C@H]1O[C@H](O[C@H]2[C@H](O)[C@@H](CO)OC(O)[C@@H]2O)[C@H](O)[C@@H](O)[C@@H]1O (stereo partly drawn) [Nigerose]
[3]
  Relative activity (%): 0%
[4]
  Inhibition (%): 0%
